Reference: US20160009693A1, “HERBICIDAL COMPOUNDS” (SYNGENTA LIMITED, priority 2013, published 2016)

What was measured:
Type in all cases: in vivo
Conditions in all cases: applied at 1000 g/h, evaluated after 13 days
[1] = system: Alopecurus myosuroides (ALOMY); experiment: Herbicidal glasshouse test, post-emergence, ALOMY
[2] = system: Ipomoea hederacea (IPOHE); experiment: Herbicidal glasshouse test, pre-emergence, IPOHE
[3] = system: Ipomoea hederacea (IPOHE); experiment: Herbicidal glasshouse test, post-emergence, IPOHE
[4] = system: Setaria faberi (SETFA); experiment: Herbicidal glasshouse test, pre-emergence, SETFA
[5] = system: Solanum nigrum (SOLNI); experiment: Herbicidal glasshouse test, pre-emergence, SOLNI
Outline: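 Seeds of Solanum nigrum were sown in pots of standard soil and kept one day in a glasshouse at 24/16° C. day/night, 14 hours light and 65% humidity. For the pre-emergence treatment they were then sprayed with an aqueous solution of the active ingredient formulated in acetone/water (50:50) containing 0.5% Tween 20. Plant damage was rated after 13 days.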

[6] = system: Setaria faberi (SETFA); experiment: Herbicidal glasshouse test, post-emergence, SETFA
Outline: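 Setaria faberi seeds were sown in standard soil in pots and grown for 8 days in a glasshouse at 24/16° C. day/night, 14 hours light and 65% humidity. The seedlings were then sprayed post-emergence with the active ingredient in acetone/water (50:50) containing 0.5% Tween 20. Afterwards they were kept under the same conditions, watered twice daily, and scored for percentage damage on a five point scale.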

[7] = system: Solanum nigrum (SOLNI); experiment: Herbicidal glasshouse test, post-emergence, SOLNI
[8] = system: Amaranthus retoflexus (AMARE); experiment: Herbicidal glasshouse test, post-emergence, AMARE
Outline: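 Amaranthus retoflexus (AMARE) seeds were sown in pots of standard soil and grown in a glasshouse at 24/16° C. day/night, 14 hours light and 65% humidity for 8 days. The plants were then sprayed post-emergence with an aqueous solution of the active ingredient in acetone/water (50:50) with 0.5% Tween 20. Damage was scored after 13 days.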

[9] = system: Echinochloa crus-galli (ECHCG); experiment: Herbicidal glasshouse test, pre-emergence, ECHCG
Outline: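 Echinochloa crus-galli seeds were sown in standard soil in pots and grown for one day in a glasshouse at 24/16° C. day/night, 14 hours light and 65% humidity. Pre-emergence spraying used an aqueous solution of the active ingredient in acetone/water (50:50) with 0.5% Tween 20. Damage was scored after 13 days on a five point scale.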

[10] = system: Amaranthus retoflexus (AMARE); experiment: Herbicidal glasshouse test, pre-emergence, AMARE
Outline: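 Amaranthus retoflexus seeds were sown in pots of standard soil and kept one day in a glasshouse at 24/16° C. (day/night), 14 hours light and 65% humidity. They were then sprayed pre-emergence with the active ingredient in acetone/water (50:50) containing 0.5% Tween 20. Plants grew under the same conditions, watered twice daily, and percentage damage was scored after 13 days.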

[11] = system: Echinochloa crus-galli (ECHCG); experiment: Herbicidal glasshouse test, post-emergence, ECHCG
Outline: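 Echinochloa crus-galli (ECHCG) seeds were sown in standard soil in pots and grown for 8 days in a glasshouse at 24/16° C. day/night, 14 hours light and 65% humidity. The young plants were then sprayed post-emergence with the active ingredient in acetone / water (50:50) containing 0.5% Tween 20. Damage was scored after 13 days.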

[12] = system: Alopecurus myosuroides (ALOMY); experiment: Herbicidal glasshouse test, pre-emergence, ALOMY

| Structure (SMILES) | POST Application ALOMY, percentage damage (five point scale) [1] | PRE Application IPOHE, percentage damage (five point scale) [2] | POST Application IPOHE, percentage damage (five point scale) [3] | PRE Application SETFA, percentage damage (five point scale) [4] | PRE Application SOLNI, percentage damage (five point scale) [5] | POST Application SETFA, percentage damage (five point scale) [6] | POST Application SOLNI, percentage damage (five point scale) [7] | POST Application AMARE, percentage damage (five point scale) [8] | PRE Application ECHCG, percentage damage (five point scale) [9] | PRE Application AMARE, percentage damage (five point scale) [10] | POST Application ECHCG, percentage damage (five point scale) [11] | PRE Application ALOMY, percentage damage (five point scale) [12] |
| --- | --- | --- | --- | --- | --- | --- | --- | --- | --- | --- | --- | --- |
| Cn1nnnc1NC(=O)c1nn(C)c(=O)n(CCCC(F)(F)F)c1=O [Compound 1.090] | 5 (5=80-100%) | 5 (5=80-100%) | 5 (5=80-100%) | 5 (5=80-100%) | 5 (5=80-100%) | 5 (5=80-100%) | 5 (5=80-100%) | 5 (5=80-100%) | 5 (5=80-100%) | 5 (5=80-100%) | 5 (5=80-100%) | 5 (5=80-100%) |
| CC(C)c1ccc(-n2c(=O)c(C(=O)Nc3nnnn3C)nn(C)c2=O)cc1 [Compound 1.046] | 5 (5=80-100%) | 5 (5=80-100%) | 5 (5=80-100%) | 5 (5=80-100%) | 5 (5=80-100%) | 5 (5=80-100%) | 5 (5=80-100%) | 5 (5=80-100%) | 5 (5=80-100%) | 5 (5=80-100%) | 5 (5=80-100%) | 5 (5=80-100%) |
| COc1ccc(-n2c(=O)c(C(=O)Nc3nnnn3C)nn(C)c2=O)cc1Cl [Compound 1.045] | 5 (5=80-100%) | 5 (5=80-100%) | 5 (5=80-100%) | 5 (5=80-100%) | 5 (5=80-100%) | 5 (5=80-100%) | 5 (5=80-100%) | 5 (5=80-100%) | 5 (5=80-100%) | 5 (5=80-100%) | 5 (5=80-100%) | 5 (5=80-100%) |
| Cn1nnnc1NC(=O)c1nn(C)c(=O)n(Cc2cccc(C(F)F)c2)c1=O [Compound 1.079] | 4 (4=60-79%) | 4 (4=60-79%) | 5 (5=80-100%) | 1 (1=0-19%) | 5 (5=80-100%) | 2 (2=20-39%) | 5 (5=80-100%) | 5 (5=80-100%) | 5 (5=80-100%) | 5 (5=80-100%) | 5 (5=80-100%) | 5 (5=80-100%) |
